# Results: patent US20260130999A1, “METHODS FOR TREATING CANCERS ASSOCIATED WITH ETBR ACTIVATION” (ENB Therapeutics, Inc., priority 2022, published 2026)
# Test system: 4T-1-HER2 mammary tumors
# Assay: 4T1-HER2 mammary tumors in syngeneic female BALB/c mice treated with anti-HER2 CAR-T, BQ-788-B and anti-PD1
# Type: in vivo
# Text: Lentivirus for expression of an anti-HER2 CAR was produced by co-transfecting 293T-17 cells with lentiviral vector pLVX-EF1α-CAR-IRES-ZsGreen1 together with the packaging plasmids pSPAX2 and pMD2.G. Splenocytes from 6-week old female BALB/c mice were isolated by density-gradient centrifugation using a lymphocyte separation medium, Histopaque, activated in 24-well plates at a density of 1×10^6 cell/ml using a mouse T Cell Activation/Expansion Kit for 2-3 days, and then transduced with pLVX-EF1α-CAR-IRES-ZsGreen1 lentivirus at the multiplicity of infection of 20 in the presence of 8 µg/mL polybrene by centrifugation at 1,500×g for 2 hours at 32° C. GFP+ transduced T cells were analyzed by flow cytometry to evaluate the lentiviral transduction efficiency.
# 4T1-HER2 cells (4×10^6), were resuspended in 0.1 mL PBS and mixed with 0.1 mL Matrigel and injected subcutaneously into the right back region of BALB/c female mice (6-week-old, weighed 17-20 g). Tumor growth was monitored by caliper measurement every three days.
# About 14 days after 4T-1-HER2 cell injection, when the tumor diameter reaches about 6 mm in diameter, mice were randomized into eight groups for treatments (6 mice per group).
# Blank T or CAR-T cells (1×10^7 cells/mice) were injected intravenously into each mouse on day 11 and day 18 post-tumor inoculation. BQ-788-B ([…]) or PBS was administered via subcutaneous injection into each mouse, starting on day 10, every two or three days for a total of 9 injections. All mice were injected intraperitoneally with 20,000 IU IL-2 once every 2 days from day 14 to […] (Note: day 0 is defined as when 4T1-HER2 cells are injected into mice). Anti-PD1 or isotype control Ig (230 ug/mouse) was injected IP every 4 days, starting on day 11 post tumor inoculation (4 injections total). The eight treatment groups are listed below: • 1) Blank T+PBS+isotype • 2) CAR-T+PBS+isotype • 3) BQ-788-B+Blank T+isotype • 4) Blank T+PBS+anti-PD1 • 5) BQ-788-B+CAR-T+ isotype • 6) CAR-T+PBS+anti-PD1 • 7) BQ-788-B+Blank T+anti-PD1 • 8) BQ-788-B+CAR-T+ anti-PD1
# Tumor growth was monitored by caliper measurement every three days. On the 30th day after 4T1-HER2 cell injection, all mice were euthanized by asphyxiation with CO2 followed by cervical dislocation. All tumors were dissected out and photographed before fixation in 10% formalin.
smiles,measurement,setting,value
[2H]C[C@@H]1CCC[C@H](C[2H])N1C(=O)N[C@@H](CC(C)(C)C)C(=O)N[C@H](Cc1cn(C(=O)OC)c2ccccc12)C(=O)N[C@H](CCCC)C(=O)O [BQ-788-B],tumor volumes at day 29,"BQ-788-B in combination with anti-PD1 and/or CAR-T therapy, compared to control, CAR-T alone, or PD-1 alone, FIG. 4",significantly reduced tumor volumes
same,tumor weights at day 30,"BQ-788-B in combination with anti-PD1 and/or CAR-T therapy, compared to control, CAR-T alone, or PD-1 alone, FIGS. 5A and 5B",significantly reduced tumor weights
same,"anti-tumor efficacy of CAR-T cells, of anti-PD-1 antibody therapy and of their combinations",addition of BQ-788-B,significantly enhances the anti-tumor efficacy
same,tumor suppression at later time points,addition of BQ-788-B in mice treated with either anti-PD1 or CAR-T therapy,enhanced tumor suppression
